From US20230137306A1 (priority 2020, published 2023)
Structures can show the parent of a compound that is named as a salt. Where two headings read alike, the source gives them in different places.

Columns and labels:
COVID-19 = conditions: randomized controlled trials; cited from earlier work
SARS-CoV = conditions: cited from earlier work
[1] = tested on: RNA viruses such as norovirus, bunyavirus, arenavirus, flavivirus and Filovirus; conditions: cited from earlier work
[2] = healthy adult males, cited from earlier work
[3] = tested on: membrane fusion caused by the S protein of MERS-CoV; conditions: cited from earlier work
SARS-CoV-2 [4] = conditions: read-out: 50% infection inhibitory concentration (IC50); Vero E6 cells, TMPRSS2 not expressed; Wang et al.; cited from earlier work
[5] = tested on: membrane fusion induced by the S protein of SARS-CoV-2 (H3255 cells); assay type: cell-based, human
[6] = Pharmacokinetics, intravenous drip in healthy adult males; conditions: 20 mg intravenous drip over 90 minutes; corresponds to 61.5 ng/mL
[7] = tested on: membrane fusion induced by the S protein of SARS-CoV-2 (Calu-3 cells); assay type: cell-based, human
SARS-CoV-2 [8] = conditions: human, in vivo; cited from earlier work
[9] = tested on: membrane fusion induced by the S protein of SARS-CoV; assay type: cell-based, human; conditions: 293FT target cells, nafamostat 0.1 μM to 10 μM, gabexsate 1 μM to 10 μM, FIG. 6
[10] = tested on: membrane fusion induced by the S protein of SARS-CoV-2; assay type: cell-based, human

Cc1cccc(C)c1OCC(=O)N[C@@H](Cc1ccccc1)[C@@H](O)C[C@H](Cc1ccccc1)NC(=O)[C@H](C(C)C)N1CCCNC1=O [lopinavir]
improvement of the symptoms of COVID-19 (COVID-19): could not improve the symptoms | inhibitory activity against SARS-CoV (SARS-CoV): exhibited inhibitory activity

CC(C)c1nc(CN(C)C(=O)N[C@H](C(=O)N[C@@H](Cc2ccccc2)C[C@H](O)[C@H](Cc2ccccc2)NC(=O)OCc2cncs2)C(C)C)cs1 [ritonavir]
improvement of the symptoms of COVID-19 (COVID-19): could not improve the symptoms | inhibitory activity against SARS-CoV (SARS-CoV): exhibited inhibitory activity

NC(=O)c1nc(F)c[nH]c1=O [favipiravir]
antiviral activity against RNA viruses [1]: exhibits antiviral activity

N=C(N)c1ccc2cc(OC(=O)c3ccc(N=C(N)N)cc3)ccc2c1 [nafamostat mesylate, 6-amidinonaphthalen-2-yl 4-guanidinobenzoate bis(methanesulfonate)]
maximum blood concentration of unchanged agent ([2]; 10 mg intravenous drip over 90 minutes): 16.4 ng/mL | maximum blood concentration of unchanged agent ([2]; 20 mg intravenous drip over 90 minutes): 61.5 ng/mL | inhibition of membrane fusion caused by the S protein of MERS-CoV [3]: effectively inhibits | IC50 (SARS-CoV-2 [4]): 22.5 µM | suppression of membrane fusion [5]: almost completely suppressed | maximum blood concentration converted to [6]: 114 nM | concentration lower than that used for the 293FT cells [7]: about 10 fold | inhibitory activity against membrane fusion, stronger than that of camostat mesylate [7]: about 10 fold | suppression of membrane fusion [7]: almost completely suppressed

CCN(CCO)CCCC(C)Nc1ccnc2cc(Cl)ccc12 (stereo not drawn) [Hydroxychloroquine]
removal of SARS-CoV-2 from the nasopharynx (SARS-CoV-2 [8]): removed at high frequency

CN(C)C(=O)COC(=O)Cc1ccc(OC(=O)c2ccc(NC(=N)N)cc2)cc1 [camostat mesylate, dimethylcarbamoylmethyl 4-(4-guanidinobenzoyloxy)phenylacetate monomethanesulfonate]
inhibitory effect on membrane fusion (relative cell fusion, RL activity) [9]: second highest inhibitory effect | inhibitory effect on membrane fusion (relative cell fusion, RL activity) [10]: membrane fusion was inhibited | inhibitory effect relative to that of nafamostat mesylate [10]: about 1/10
